In brackets after ≈: the same amount, converted by molar mass.

What all share (assay type): in vivo, Pepper mild mottle virus (PMMoV)
Assay [1] concerns PMMoV. As to the kind of experiment: Antiviral activity assay against PMMoV, curative activity. Set-up: Curative activity: concentration or dose not given beside the values. The note with it: against PMMoV, average of three replicates, ± standard deviation; for EC50: Pepper mild mottle virus, read-out: EC50 of curative activity. As to the method:
(§1) Virions were isolated and extracted from leaves of N. benthamiana infected with PMMoV referring to the method recorded in the literature. And the inhibiting activities of C1–C38 against PMMoV were assessed with reference to the literature as well [26, 34].

For assay [2], the system named is PMMoV. In words: Antiviral activity assay against PMMoV, protective activity. Set-up: Protective activity: concentration or dose not given beside the values. The note with it: against PMMoV, average of three replicates, ± standard deviation; for EC50: Pepper mild mottle virus, read-out: EC50 of protective activity. As to the method:
as §1

In assay [3] the test system is PMMoV. In words: Antiviral activity assay against PMMoV, inactivating activity. As to conditions: Pepper mild mottle virus, against PMMoV, average of three replicates, ± standard deviation; for pest or weed control at 500 µg/mL: read-out: Inactivating activity; for EC50: read-out: EC50 of inactivating activity. As to the method:
as §1

As to `CC(=O)OCC1OC(n2cnc3c(N4CCOCC4)nc(F)nc32)C(NS(=O)(=O)c2ccccc2)C(OC(C)=O)C1OC(C)=O` (stereo not drawn) [C19], in assay [1], the EC50 (in general, the concentration at which the effect is half-maximal) was found to be 36.7 ± 3.7 µg/mL (≈ 56.4 µM) and the Curative activity is recorded as 69.5 ± 4.7%. Also, in assay [2], the EC50 worked out at 159 ± 11.8 µg/mL (≈ 245 µM) and the Protective activity was 59.8 ± 3.6%. In addition, in assay [3], the pest or weed control at 500 µg/mL is 69.7 ± 1.9% and the EC50 is 25.5 ± 4 µg/mL (≈ 39.2 µM).

Take `CC(=O)OCC1OC(n2cnc3c(N4CCOCC4)ncnc32)C(NS(=O)(=O)c2ccccc2Br)C(OC(C)=O)C1OC(C)=O` (stereo not drawn) [C17]: in assay [1], the EC50 is 16.1 ± 2.7 µg/mL (≈ 22.6 µM) and the Curative activity was found to be 70.5 ± 3.8%. Also, in assay [2], the EC50 came to 140 ± 9.5 µg/mL (≈ 197 µM) and the Protective activity was found to be 61.0 ± 5.3%. Further, in assay [3], the pest or weed control at 500 µg/mL worked out at 59.9 ± 4% and the EC50 is 84 ± 2.8 µg/mL (≈ 118 µM).

Consider `CC(=O)OCC1OC(n2cnc3c(N4CCOCC4)ncnc32)C(NS(=O)(=O)c2cccc(C(F)(F)F)c2)C(OC(C)=O)C1OC(C)=O` (stereo not drawn) [C29], for which, in assay [1], the EC50 is 64.8 ± 3.1 µg/mL (≈ 92.5 µM) and the Curative activity stood at 69.8 ± 4.3%. Also, in assay [2], the EC50 was 88.4 ± 6.3 µg/mL (≈ 126 µM) and the Protective activity worked out at 64.9 ± 4.7%. Also, in assay [3], the pest or weed control at 500 µg/mL came to 53.4 ± 0.8% and the EC50 amounted to 353 ± 18.7 µg/mL (≈ 504 µM).

For `CC(=O)OCC1OC(n2cnc3c(N4CCOCC4)nc(F)nc32)C(NS(=O)(=O)c2ccc(C(F)(F)F)cc2)C(OC(C)=O)C1OC(C)=O` (stereo not drawn) [C28], in assay [1], the EC50 worked out at 45.4 ± 3 µg/mL (≈ 63.2 µM) and the Curative activity turned out to be 69.4 ± 4.9%. Also, in assay [2], the EC50 worked out at 633 ± 13.6 µg/mL (≈ 881 µM) and the Protective activity is recorded as 42.9 ± 0.7%. Also, in assay [3], the pest or weed control at 500 µg/mL turned out to be 44 ± 4.3% and the EC50 was found to be 576 ± 14.9 µg/mL (≈ 801 µM).

Consider `COc1ccc(S(=O)(=O)NC2C(OC(C)=O)C(OC(C)=O)C(COC(C)=O)OC2n2cnc3c(N4CCOCC4)nc(F)nc32)cc1` (stereo not drawn) [C13], for which, in assay [1], the EC50 came to 20.9 ± 3 µg/mL (≈ 30.7 µM) and the Curative activity came out at 72.5 ± 2.6%. For the same compound, in assay [2], the EC50 amounted to 596 ± 10.9 µg/mL (≈ 876 µM) and the Protective activity stood at 46.5 ± 3.4%. Further, in assay [3], the pest or weed control at 500 µg/mL turned out to be 47.3 ± 2.7% and the EC50 is 458.1 ± 3.3 µg/mL (≈ 673 µM).

`CC(=O)OCC1OC(n2cnc3c(N4CCOCC4)ncnc32)C(NS(=O)(=O)c2ccc(Br)cc2)C(OC(C)=O)C1OC(C)=O` (stereo not drawn) [C15]: in assay [1], the EC50 was found to be 61 ± 5.4 µg/mL (≈ 85.7 µM) and the Curative activity is listed as 65.6 ± 3.4%. For the same compound, in assay [2], the EC50 came to 103 ± 6.4 µg/mL (≈ 145 µM) and the Protective activity is recorded as 62.5 ± 3.3%. Besides, in assay [3], the pest or weed control at 500 µg/mL turned out to be 47.7 ± 0.69% and the EC50 was 593 ± 13.7 µg/mL (≈ 833 µM).

Take `CC(=O)OCC1OC(n2cnc3c(N4CCOCC4)ncnc32)C(NS(=O)(=O)c2ccc(C(F)(F)F)cc2)C(OC(C)=O)C1OC(C)=O` (stereo not drawn) [C26]: in assay [1], the EC50 is 45.1 ± 4.7 µg/mL (≈ 64.4 µM) and the Curative activity is listed as 67.6 ± 2.5%. In assay [2], the EC50 was 788 ± 12.8 µg/mL (≈ 1120 µM) and the Protective activity turned out to be 44.5 ± 1.6%. Further, in assay [3], the pest or weed control at 500 µg/mL is 45.5 ± 2.6% and the EC50 amounted to 632 ± 15.2 µg/mL (≈ 902 µM).

As to `CC(=O)OCC1OC(n2cnc3c(N4CCOCC4)nc(F)nc32)C(NS(=O)(=O)c2ccc([N+](=O)[O-])cc2)C(OC(C)=O)C1OC(C)=O` (stereo not drawn) [C3], in assay [1], the concentration giving a half-maximal response (EC50) amounted to 11.5 ± 4.4 µg/mL (≈ 16.5 µM) and the Curative activity is given as 67.0 ± 3.6%. For the same compound, in assay [2], the EC50 came to 388 ± 16.6 µg/mL (≈ 557 µM) and the Protective activity came to 57.5 ± 4.3%. In addition, in assay [3], the pest or weed control at 500 µg/mL worked out at 68.9 ± 4.9% and the EC50 was determined as 198 ± 16.1 µg/mL (≈ 285 µM).

As for `O=[N+]([O-])c1ccc(S(=O)(=O)NC2C(O)C(O)C(CO)OC2n2cnc3c(N4CCOCC4)ncnc32)cc1` (stereo not drawn) [C37], in assay [1], the EC50 amounted to 2000 ± 21.8 µg/mL (≈ 3620 µM) and the Curative activity was 36.2 ± 4.6%. Besides, in assay [2], the EC50 came to 344 ± 15.8 µg/mL (≈ 623 µM) and the Protective activity is reported as 50.6 ± 2.1%. Moreover, in assay [3], the pest or weed control at 500 µg/mL came to 57.8 ± 3.4% and the EC50 came out at 280 ± 13.9 µg/mL (≈ 507 µM).

`CC(=O)OCC1OC(n2cnc3c(N4CCOCC4)ncnc32)C(NS(=O)(=O)c2cccc([N+](=O)[O-])c2)C(OC(C)=O)C1OC(C)=O` (stereo not drawn) [C5]: in assay [1], the EC50 came out at 63.8 ± 5.3 µg/mL (≈ 94.1 µM) and the Curative activity was determined as 60.3 ± 2.5%. In assay [2], the EC50 amounted to 2280 ± 24.8 µg/mL (≈ 3370 µM) and the Protective activity is 43.3 ± 2.3%. Besides, in assay [3], the pest or weed control at 500 µg/mL stood at 47.5 ± 1.4% and the EC50 was 622 ± 14.7 µg/mL (≈ 918 µM).

Consider `COc1ccc(S(=O)(=O)NC2C(OC(C)=O)C(OC(C)=O)C(COC(C)=O)OC2n2cnc3c(N4CCOCC4)ncnc32)cc1` (stereo not drawn) [C12], for which, in assay [1], the EC50 stood at 53 ± 2.1 µg/mL (≈ 80 µM) and the Curative activity is reported as 63.5 ± 2.6%. Besides, in assay [2], the EC50 came out at 134 ± 7.4 µg/mL (≈ 203 µM) and the Protective activity was 65.6 ± 4.7%. Further, in assay [3], the pest or weed control at 500 µg/mL came to 71.5 ± 5% and the EC50 is 43.1 ± 1.1 µg/mL (≈ 65 µM).

Consider `CC(=O)OCC1OC(n2cnc3c(N4CCOCC4)ncnc32)C(NS(=O)(=O)c2ccc(OC(F)(F)F)cc2)C(OC(C)=O)C1OC(C)=O` (stereo not drawn) [C33], for which, in assay [1], the EC50 was 32 ± 1 µg/mL (≈ 44.7 µM) and the Curative activity worked out at 71.5 ± 4.4%. In assay [2], the EC50 came out at 305 ± 12.2 µg/mL (≈ 426 µM) and the Protective activity is 53.0 ± 3.7%. Moreover, in assay [3], the pest or weed control at 500 µg/mL turned out to be 54.4 ± 3.3% and the concentration for a half-maximal effect (EC50) came out at 176 ± 11.3 µg/mL (≈ 246 µM).
